Where “and” joins values, the source holds several entries; their conditions need not be identical. Equal values may be shown once.
System: Hericium erinaceus strain ACCC50268
Experiment: Liquid fermentation of Hericium erinaceus with an inducer added; mycelium weighed, Erinacine A in methanol extract measured by HPLC
Assay type: cell-based
Settings: for effect on Erinacine A yield (in words): 5 mg/L added on 5th day; for increase of Erinacine A content in the mycelium: 5 mg/L inducer versus no inducer (0.19±0.05 mg/g dry mycelium); for increase of Erinacine A yield: 5 mg/L inducer versus no inducer (4.48±0.96 mg/L)
Procedure: The strain number of a Hericium erinaceus strain is ACCC50268; source: China Agricultural Culture Collection and Management Center.
(S.1) A strain of Hericium erinaceus was subcultured for 3 generations to achieve strain activation. The subculture temperature is 25-28° C., and the optimal culture temperature in this example is 28° C., and the time is 14 days, so that the entire inclined plane can be grown to obtain a slope strain. The components of PDA inclined medium are: potato extract, 15-25 g of glucose, 10-15 g of agar powder, and the volume is set to 1 L with water. In this example, the optimal PDA inclined medium components are as follows: potato extract, 20 g of glucose, 15 g of agar powder, and the volume is determined to 1 L with water;
(S.2) The slope strains obtained in step (S.1) were inoculated into the primary liquid seed medium for culture. One vial of bevel strains was inoculated into two vials of primary liquid seed medium. The components of liquid seed medium are: glucose 25-35 g, soybean meal powder 15-30 g, potassium dihydrogen phosphate 0.5-2 g, magnesium sulfate 0-1 g, and the balance is water. The culture conditions of liquid seed medium are: 1-10 days at 25-28° C. and 130-160 rpm in the dark. In this example, the optimal liquid seed medium components are as follows: glucose 30 g, soybean meal powder 20 g, potassium dihydrogen phosphate 1 g, magnesium sulfate 0.5 g, and the balance is water. The medium was fixed to 1 L with purified water, and the prepared liquid seed medium was loaded into a 500 mL Erlenmeyer flask with a liquid volume of 200 mL, and cultured at 27° C. and 140 rpm for 7 days in the dark, and the liquid seeds of Hericium erinaceus were obtained.
(S.3) the liquid seeds obtained in step (S.2) are inoculated into the liquid fermentation medium for liquid fermentation culture, the ratio of the liquid seed inoculation volume of Hericium erinaceus to the volume of the liquid fermentation medium is 8-12.5% (i.e., the inoculation amount of Hericium erinaceus liquid seeds is 8-12.5%), and the optimal inoculation amount of Hericium erinaceus liquid seeds in this example is 10%. The components of liquid fermentation medium are: glucose 25-50 g, yeast powder 10-30 g, potassium dihydrogen phosphate 0.5-2 g, magnesium sulfate 0-1 g, and the balance is water. The culture conditions of liquid fermentation medium are: 1-10 days at 25-28° C. and 130-160 rpm in the dark. In this example, the optimal liquid fermentation medium components are as follows: 30 g of glucose, 30 g of yeast powder, 1 g of potassium dihydrogen phosphate, 0.5 g of magnesium sulfate, and the balance is water. The medium was fixed to 1 L with distilled water, and the prepared liquid seed medium was packed into a 500 mL Erlenmeyer flask with a liquid volume of 200 mL, and incubated at 27° C. and 140 rpm for 7 days in the dark. […]
seeds of Hericium erinaceus obtained in step (S.2) into liquid fermentation medium for liquid fermentation, […] fermentation medium to a concentration of 5 mg/L. […] After the end of fermentation, the medium was filtered through 80 mesh gauze, washed with water three times, and then dried overnight at 60° C. with hot air to obtain Hericium erinaceus mycelium;
(S.4) The Hericium erinaceus mycelium obtained in step (S.3) was crushed, and 1 g of Hericium erinaceus mycelium dry powder was added to 20 mL of 80% methanol, heated and ultrasonicated. The reaction conditions for ultrasonic extraction of Erinacine A are as follows: ultrasonic power is 200-350 W, heating reaction temperature is 50-70° C., and ultrasonic reaction time is 40-90 min. In this example, the reaction conditions for the optimal ultrasonic extraction of Erinacine A are as follows: ultrasonic extraction at 60° C. and ultrasonic power of 300 W for 60 min. The supernatant was centrifuged to obtain an alcohol extract containing Erinacine A. The alcohol extract was filtered through a 0.22 μm filter membrane and then analyzed in liquid phase. […]

[1] = 5 mg/L, added on 4th day, 6 days induction fermentation
[2] = 5 mg/L, added on 5th day, 3 days induction fermentation
[3] = 5 mg/L, added on 5th day, 5 days induction fermentation
[4] = 5 mg/L, added on 5th day, 8 days induction fermentation
[5] = 5 mg/L, added on 6th day, 6 days induction fermentation
[6] = 5 mg/L, added on 7th day, 6 days induction fermentation
[7] = 5 mg/L, added on 8th day, 6 days induction fermentation
[8] = 5 mg/L, added on third day, 6 days induction fermentation
[9] = 10 mg/L, added on 5th day, 6 days induction fermentation
[10] = 50 mg/L, added on 5th day, 6 days induction fermentation
[11] = inducer 5 mg/L in liquid fermentation medium, added on 5th day, 6 days induction fermentation
[12] = inducer 5 mg/L in liquid fermentation medium, added on 5th day, 6 days induction fermentation, listed as Example 1
[13] = 1 mL of the substance (purity greater than 95%) added on 5th day, 6 days induction fermentation
[14] = inducer 5 mg/L in liquid fermentation medium, added on 5th day, 6 days induction fermentation, listed as Example 2
[15] = 1 mg/L, added on 5th day, 6 days induction fermentation
[16] = 5 mg/L, added on 5th day, 1 day induction fermentation
[17] = 5 mg/L, added on 5th day, 2 days induction fermentation
[18] = 5 mg/L, added on 5th day, 4 days induction fermentation
[19] = 20 mg/L, added on 5th day, 6 days induction fermentation

For `C[n+]1ccc(-c2cc[n+](C)cc2)cc1` [methyl viologen], the “effect on Erinacine A yield (in words)” value (6 days induction fermentation) was “significantly increased the yield of Erinacine A”, the “increase of Erinacine A content in the mycelium” value was “about 115.47 times” and the “increase of Erinacine A yield” value was “about 92.60 times”. For the same compound, the “Erinacine A content” value [1] was 1.52 ± 0.30 mg/g dried mycelium, the “Erinacine A yield” value [1] was 22.18 ± 3.84 mg/L and the Mycelium yield [1] was 2.00 ± 0.84 g/L. The “Erinacine A content” value [2] was 2.29 ± 0.52 mg/g dried mycelium, the “Erinacine A yield” value [2] was 40.30 ± 7.52 mg/L and the Mycelium yield [2] was 17.68 ± 0.50 g/L. The “Erinacine A content” value [3] was 16.58 ± 0.43 mg/g dried mycelium, the “Erinacine A yield” value [3] was 276.77 ± 4.72 mg/L and the Mycelium yield [3] was 5.45 ± 1.39 g/L. For the same compound, the “Erinacine A content” value [4] was 8.97 ± 2.33 mg/g dried mycelium, the “Erinacine A yield” value [4] was 179.50 ± 62.29 mg/L and the Mycelium yield [4] was 19.79 ± 0.76 g/L. The “Erinacine A content” value [5] was 2.98 ± 1.16 mg/g dried mycelium, the “Erinacine A yield” value [5] was 69.29 ± 30.01 mg/L and the Mycelium yield [5] was 23.05 ± 1.08 g/L. For the same compound, the “Erinacine A content” value [6] was 2.68 ± 0.66 mg/g dried mycelium, the “Erinacine A yield” value [6] was 61.60 ± 10.06 mg/L and the Mycelium yield [6] was 23.22 ± 1.93 g/L. The “Erinacine A content” value [7] was 0.57 ± 0.12 mg/g dried mycelium, the “Erinacine A yield” value [7] was 13.29 ± 2.55 mg/L and the Mycelium yield [7] was 23.28 ± 0.57 g/L. For the same compound, the “Erinacine A content” value [8] was 0.05 ± 0.01 mg/g dried mycelium, the “Erinacine A yield” value [8] was 0.41 ± 0.06 mg/L and the Mycelium yield [8] was 8.64 ± 1.54 g/L. For the same compound, the “Erinacine A content” value [9] was 20.61 ± 3.21 mg/g dried mycelium, the “Erinacine A yield” value [9] was 400.44 ± 69.30 mg/L and the Mycelium yield [9] was 7.40 ± 0.36 g/L. For the same compound, the “Erinacine A content” value [10] was 0.21 ± 0.04 mg/g dried mycelium, the “Erinacine A yield” value [10] was 3.71 ± 1.06 mg/L and the Mycelium yield [10] was 17.71 ± 1.29 g/L. The “Erinacine A content” value [11] was 21.94±2.40 mg/g dried mycelium, the “Erinacine A yield” value [11] was 414.84 ± 30.03 mg/L and the Mycelium yield [11] was 18.96 ± 0.69 g/L. The “Erinacine A content” value [12] was 94.94 ± 2.40 mg/g dried mycelium, the “Erinacine A yield” value [12] was 414.84 ± 30.03 mg/L and 418.84 ± 30.03 mg/L and the “effect on liquid fermentation growth of Hericium erinaceus (in words)” value (methyl viologen solution added at different times) was “inhibitory effect on the liquid fermentation growth of Hericium erinaceus”.
With `CCCCCCCC/C=C\CCCCCCCC(=O)O` [oleic acid] the “effect on synthesis of Erinacine A (in words)” value (1 mL added on the 5th day of liquid fermentation) was “did not show obvious stimulating effects”, the “Erinacine A content” value [13] was 0.20 ± 0.10 mg/g dried mycelium and the “Erinacine A yield” value [13] was 4.70 ± 2.16 mg/L. The Mycelium yield [13] was 23.72 ± 1.04 g/L.
For `C=C(C)[C@H]1Cc2c(ccc3c2O[C@@H]2COc4cc(OC)c(OC)cc4[C@@H]2C3=O)O1` [rotenone], the “effect on Erinacine A yield (in words)” value (6 days induction fermentation) was “positive effect on the increase of Erinacine A yield”, the “increase of Erinacine A content in the mycelium” value was “about 2.52 times” and the “increase of Erinacine A yield” value was “about 2.06 times”. The “Erinacine A content” value [11] was 0.67 mg/g dried mycelium and 0.67±0.04 mg/g dried mycelium, the “Erinacine A yield” value [11] was 13.72 mg/L and 13.72 ± 0.24 mg/L and the Mycelium yield [11] was 8.50 ± 1.69 g/L. The “Erinacine A content” value [14] was 0.67 ± 0.04 mg/g dried mycelium and the “Erinacine A yield” value [14] was 13.72 ± 0.24 mg/L.
For methyl viologen, the “Erinacine A content” value [15] was 0.63 ± 0.09 mg/g dried mycelium, the “Erinacine A yield” value [15] was 13.93 ± 4.56 mg/L and the Mycelium yield [15] was 9.49 ± 2.94 g/L. The “Erinacine A content” value [16] was 0.07 ± 0.01 mg/g dried mycelium, the Mycelium yield [16] was 20.16 ± 0.85 g/L and the “Erinacine A content” value [17] was 0.68 ± 0.27 mg/g dried mycelium. The “Erinacine A yield” value [17] was 12.53 ± 3.82 mg/L, the Mycelium yield [17] was 17.94 ± 1.68 g/L and the “Erinacine A content” value [18] was 5.49 ± 1.60 mg/g dried mycelium. For the same compound, the “Erinacine A yield” value [18] was 103.99 ± 18.67 mg/L, the “Erinacine A content” value [19] was 1.50 ± 0.38 mg/g dried mycelium and the “Erinacine A yield” value [19] was 29.47 ± 7.44 mg/L. It also gave a Mycelium yield [19] of 19.61 ± 0.48 g/L.
